Assay: HILIC, Waters ACQUITY UPLC BEH Amide, 100 × 2.1 mm, 1.7 µm; A: water + 0.125% formic acid + 10 mM ammonium formate; B: 5% water + 95% acetonitrile + 0.125% formic acid + 10 mM ammonium formate; gradient (min/%B) 0/100 2/100 7.7/70 9.5/40 10.25/30 12.75/100 17/100
Details: stereoisomer not certain

LC retention time [min] | Structure (SMILES)
4.7 | CC1OC(Oc2c(-c3ccc(O)c(O)c3)oc3cc(O)cc(O)c3c2=O)C(O)C(O)C1O (configuration not stated) [Quercetin-3-ramnoside]
2.54 | OCCOCCN1CCN(C2=Nc3ccccc3Sc3ccccc32)CC1 [Quetiapine]
2.16 | O=C(O)c1cccnc1C(=O)O [Quinolinic acid]
2.44 | COCCCOc1ccnc(CS(=O)c2nc3ccccc3[nH]2)c1C (configuration not stated) [Rabeprazole]
0.95 | CC(=O)SCC(Cc1ccccc1)C(=O)NCC(=O)OCc1ccccc1 (configuration not stated) [Racecadotril]
2.11 | CCN1CCCC1CNC(=O)c1c(O)c(Cl)cc(Cl)c1OC (configuration not stated) [Raclopride]
9.17 | OCC1OC(OCC2OC(OC3(CO)OC(CO)C(O)C3O)C(O)C(O)C2O)C(O)C(O)C1O (configuration not stated) [Raffinose]
7.35 | Cc1nc2ccc(CN(C)c3ccc(C(=O)NC(CCC(=O)O)C(=O)O)s3)cc2c(=O)[nH]1 (configuration not stated) [Raltitrexed]
1.4 | CCOC(=O)C(CCc1ccccc1)NC(C)C(=O)N1C(C(=O)O)CC2CCCC21 (configuration not stated) [Ramipril]
5.18 | CNC(=C[N+](=O)[O-])NCCSCc1ccc(CN(C)C)o1 [Ranitidine]
2.79 | COc1ccccc1OCC(O)CN1CCN(CC(=O)Nc2c(C)cccc2C)CC1 (configuration not stated) [Ranolazine]
4.41 | CC(Cc1ccccc1)(NC(=O)CN)c1ccccc1 (configuration not stated) [Remacemide]
1.01 | CCOc1cc(CC(=O)NC(CC(C)C)c2ccccc2N2CCCCC2)ccc1C(=O)O (configuration not stated) [Repaglinide]
1.41 | Oc1ccc(C=Cc2cc(O)cc(O)c2)cc1 [Resveratrol]
1.11 | CC(C=CC1=C(C)CCCC1(C)C)=CC=CC(C)=CC(=O)O [Retinoic acid]
6 | Cc1cc2nc3c(=O)[nH]c(=O)nc-3n(CC(O)C(O)C(O)CO)c2cc1C (configuration not stated) [Riboflavin]
2.76 | COC1C=COC2(C)Oc3c(C)c(O)c4c(O)c(c5c(c4c3C2=O)=NC2(CCN(CC(C)C)CC2)N=5)NC(=O)C(C)=CC=CC(C)C(O)C(C)C(O)C(C)C(OC(C)=O)C1C (configuration not stated) [Rifabutin]
1.81 | COC1C=COC2(C)Oc3c(C)c(O)c4c(O)c(c(C=NN5CCN(C6CCCC6)CC5)c(O)c4c3C2=O)NC(=O)C(C)=CC=CC(C)C(O)C(C)C(O)C(C)C(OC(C)=O)C1C (configuration not stated) [Rifapentine]
1.18 | COC1C=COC2(C)Oc3c(C)c(O)c4c(O)c(c5c(nc6cc(C)ccn65)c4c3C2=O)NC(=O)C(C)=CC=CC(C)C(O)C(C)C(O)C(C)C(OC(C)=O)C1C (configuration not stated) [Rifaximin]
1.03 | Nc1nc2ccc(OC(F)(F)F)cc2s1 [Riluzole]
2.87 | CC1CN(CCCn2c3ccccc3c3ccccc32)CC(C)N1 (configuration not stated) [Rimcazole]
3.52 | Cc1nc2n(c(=O)c1CCN1CCC(c3noc4cc(F)ccc34)CC1)CCCC2 [Risperidone]
1.15 | CC(C)c1nc(CN(C)C(=O)NC(C(=O)NC(Cc2ccccc2)CC(O)C(Cc2ccccc2)NC(=O)OCc2cncs2)C(C)C)cs1 (configuration not stated) [Ritonavir]
5.11 | CN(C)CCc1c[nH]c2ccc(Cn3cncn3)cc12 [Rizatriptan]
0.97 | CS(=O)(=O)c1ccc(C2=C(c3ccccc3)C(=O)OC2)cc1 [Rofecoxib]
1.12 | COc1ccc(C2CNC(=O)C2)cc1OC1CCCC1 (configuration not stated) [Rolipram]

LC retention time [min] | Structure (SMILES)
2.49 | CCCN1CCCCC1C(=O)Nc1c(C)cccc1C (configuration not stated) [Ropivacaine]
1.24 | CN(CCOc1ccc(CC2SC(=O)NC2=O)cc1)c1ccccn1 (configuration not stated) [Rosigltazone]
3.01 | CC(=O)OCC(=O)NCCCOc1cccc(CN2CCCCC2)c1 [Roxane]
4.65 | CN1CCN(c2c(F)cc3c(=O)c(C(=O)O)cn4c3c2SCC4)CC1 [Rufloxacin]
6.6 | CC1OC(OCC2OC(Oc3c(-c4ccc(O)c(O)c4)oc4cc(O)cc(O)c4c3=O)C(O)C(O)C2O)C(O)C(O)C1O (configuration not stated) [Rutin]
8.85 | Nc1ncnc2c1ncn2C1OC(CSCCC(N)C(=O)O)C(O)C1O (configuration not stated) [S-Adenosyl-homocysteine]
9.7 | C[S+](CCC(N)C(=O)[O-])CC1OC(n2cnc3c(N)ncnc32)C(O)C1O (configuration not stated) [S-Adenosyl-methionine]
8.49 | CN=C(NC)NCCCC(N)C(=O)O (configuration not stated) [SDMA]
4.48 | OCc1ccccc1OC1OC(CO)C(O)C(O)C1O (configuration not stated) [Salicin]
4.75 | OCc1cc(C(O)CNCCCCCCOCCCCc2ccccc2)ccc1O (configuration not stated) [Salmeterol]
2.85 | CC(C)(C)NC(=O)C1CC2CCCCC2CN1CC(O)C(Cc1ccccc1)NC(=O)C(CC(N)=O)NC(=O)c1ccc2ccccc2n1 (configuration not stated) [Saquinavir]
7.82 | CNCC(=O)O [Sarcosine]
1.16 | COc1cc2ccc(=O)oc2cc1O [Scopoletin]
1.12 | Cc1ncc([N+](=O)[O-])n1CC(C)O (configuration not stated) [Secnidazole]
9.65 | NC(CO)C(=O)NC(CCC(=O)O)C(=O)O (configuration not stated) [Ser-Glu]
8.44 | NC(CO)C(=O)NC(Cc1ccc(O)cc1)C(=O)O (configuration not stated) [Ser-Tyr]
8.73 | NC(CO)C(=O)O (configuration not stated) [Serine]
2.74 | CNC1CCC(c2ccc(Cl)c(Cl)c2)c2ccccc21 (configuration not stated) [Sertraline]
1.41 | COc1cc(C=CC(=O)O)cc(OC)c1O [Sinapic acid]
9.75 | O=P(O)(O)OCC(O)C(O)C(O)C(O)CO (configuration not stated) [Sorbitol-6-phosphate]
4.87 | CC(C)NCC(O)c1ccc(NS(C)(=O)=O)cc1 (configuration not stated) [Sotalol]
6.98 | NCCCCNCCCN [Spermidine]
7.24 | NCCCNCCCCNCCCN [Spermine]
7.1 | C[N+]1(C)CCCC1C(=O)O (configuration not stated) [Stachydrine]
1.62 | Cc1cn(C2C=CC(CO)O2)c(=O)[nH]c1=O (configuration not stated) [Stavudine]
2.96 | CCCCCCCCCCCCCCCCCC(=O)OC(CC(=O)O)C[N+](C)(C)C [Stearoyl-L-carnitine]

LC retention time [min] | Structure (SMILES)
8.74 | C=Cc1ccccc1 [Styrene]
4.46 | O=C(O)CCC(=O)O [Succinic acid]
8.05 | OCC1OC(OC2(CO)OC(CO)C(O)C2O)C(O)C(O)C1O (configuration not stated) [Sucrose]
2.01 | O=C(O)c1cc(N=Nc2ccc(S(=O)(=O)Nc3ccccn3)cc2)ccc1O [Sulfasalazine]
4.31 | CNS(=O)(=O)Cc1ccc2[nH]cc(CCN(C)C)c2c1 [Sumatriptan]
4.32 | COc1cc(-c2oc3cc(O)cc(O)c3c(=O)c2OC2OC(CO)C(O)C(O)C2O)cc(OC)c1O (configuration not stated) [Syringetin-3-O-glucoside]
1.35 | COc1cc(C(=O)O)cc(OC)c1O [Syringic acid]
7.7 | O=S(=O)(O)CCNC(CO)(CO)CO [TES]
3.86 | Nc1c2c(nc3ccccc13)CCCC2 [Tacrine]
1.07 | C=CCC1C=C(C)CC(C)CC(OC)C2OC(O)(C(=O)C(=O)N3CCCCC3C(=O)OC(C(C)=CC3CCC(O)C(OC)C3)C(C)C(O)CC1=O)C(C)CC2OC (configuration not stated) [Tacrolimus]
1.19 | CN1CC(=O)N2C(Cc3c([nH]c4ccccc34)C2c2ccc3c(c2)OCO3)C1=O (configuration not stated) [Taldalafil]
9.22 | CN=C(N)NCCCC(N)C(=O)O (configuration not stated) [Targinine]
7.85 | NCCS(=O)(=O)O [Taurine]
6.12 | CC(CCC(=O)NCCS(=O)(=O)O)C1CCC2C3C(O)CC4CC(O)CCC4(C)C3CC(O)C12C (configuration not stated) [Taurocholic acid]
1.78 | O=C1c2c(O)cc(O)cc2OC(c2ccc(O)c(O)c2)C1O (configuration not stated) [Taxifolin]
1.22 | O=c1[nH]c(=O)n(C2CCCO2)cc1F (configuration not stated) [Tegafur]
2.84 | CCCCCN=C(N)NN=Cc1c[nH]c2ccc(OC)cc12 [Tegaserod]
1.25 | CCCc1nc2c(C)cc(-c3nc4ccccc4n3C)cc2n1Cc1ccc(-c2ccccc2C(=O)O)cc1 [Telmisartan]
1.33 | Cn1nnc2c(C(N)=O)ncn2c1=O [Temozolomide]
4.66 | COc1cc2nc(N3CCN(C(=O)C4CCCO4)CC3)nc(N)c2cc1OC (configuration not stated) [Terazosin]
1.33 | CN(CC=CC#CC(C)(C)C)Cc1cccc2ccccc12 [Terbinafine]
7.66 | CCNC(=O)CCC(N)C(=O)O (configuration not stated) [Theanine]
1.54 | Cn1c(=O)c2[nH]cnc2n(C)c1=O [Theophylline]
6.92 | O=C(O)C1CSCN1 (configuration not stated) [Thiazolidine-4-carboxylic acid]
5.23 | N=c1ccc2nc3ccc(N)cc3sc-2c1 [Thionin]
1.56 | OCC(O)C(O)CO (configuration not stated) [Threitol]

Structure (SMILES) | LC retention time [min]
CN1C2CC(OC(=O)C(CO)c3ccccc3)CC1C1OC12 (configuration not stated) [Scopolamine] | 3.75
C#CCN(C)C(C)Cc1ccccc1 (configuration not stated) [Selegiline] | 1.5
NCCc1c[nH]c2ccc(O)cc12 [Serotonin] | 1.44
CC(C)CC(N(C)C)C1(c2ccc(Cl)cc2)CCC1 (configuration not stated) [Sibutramine] | 1.86
CC12Cc3cn[nH]c3CC1CCC1C2CCC2(C)C1CCC2(C)O (configuration not stated) [Stanozolol] | 1.19
CS(=O)CCCCN=C=S (configuration not stated) [Sulforaphane] | 1.14
CNCC(O)c1ccc(O)cc1 (configuration not stated) [Synephrine] | 5.67
CN1C(=O)C(O)N=C(c2ccccc2)c2cc(Cl)ccc21 (configuration not stated) [Temazepam] | 1.15
CC12CCC(=O)C=C1CCC1C2CCC2(C)C(O)CCC12 (configuration not stated) [Testosterone] | 1.05
